Measurements published in ChEMBL document CHEMBL4725318, “New vinyl-1,2,4-triazole derivatives as antimicrobial agents: Synthesis, biological evaluation and molecular docking studies” (2020).
In brackets after ≈: the same amount, converted by molar mass.

How the values were obtained:
Format in all cases: functional
Penicillium cyclopium [1] = experiment: Antifungal activity Penicillium verrucosum var. cyclopium by microdilution method
Erwinia amylovora [2] = experiment: Antibacterial activity against Erwinia amylovora by microdilution method
[3] = tested on: Pectobacterium carotovorum; experiment: Antibacterial activity against Erwinia carotovora by microdilution method
Aspergillus ochraceus [4] = experiment: Fungicidal activity Aspergillus ochraceus
Bacillus subtilis [5] = experiment: Antibacterial activity against Bacillus subtilis by microdilution method
Trichoderma viride [6] = experiment: Antifungal activity Trichoderma viride by microdilution method
Pseudomonas fluorescens [7] = experiment: Antibacterial activity against Pseudomonas fluorescens by microdilution method
Aspergillus fumigatus [8] = experiment: Antifungal activity Aspergillus fumigatus by microdilution method
Bacillus subtilis [9] = experiment: Bactericidal activity against Bacillus subtilis
Talaromyces funiculosus [10] = experiment: Fungicidal activity Penicillium funiculosum
Aspergillus fumigatus [11] = experiment: Fungicidal activity Aspergillus fumigatus
Aspergillus niger [12] = experiment: Antifungal activity Aspergillus niger by microdilution method
[13] = tested on: Pectobacterium carotovorum; experiment: Bactericidal activity against Erwinia carotovora
Xanthomonas campestris [14] = experiment: Bactericidal activity against Xanthomonas campestris
Aspergillus ochraceus [15] = experiment: Antifungal activity Aspergillus ochraceus by microdilution method
Pseudomonas fluorescens [16] = experiment: Bactericidal activity against Pseudomonas fluorescens
Penicillium ochrochloron [17] = experiment: Fungicidal activity Penicillium ochrochloron
Trichoderma viride [18] = experiment: Fungicidal activity Trichoderma viride
Xanthomonas campestris [19] = experiment: Antibacterial activity against Xanthomonas campestris by microdilution method
Talaromyces funiculosus [20] = experiment: Antifungal activity Penicillium funiculosum by microdilution method
Penicillium cyclopium [21] = experiment: Fungicidal activity Penicillium verrucosum var. cyclopium
Penicillium ochrochloron [22] = experiment: Antifungal activity Penicillium ochrochloron by microdilution method
Erwinia amylovora [23] = experiment: Bactericidal activity against Erwinia amylovora
Aspergillus versicolor [24] = experiment: Antifungal activity Aspergillus versicolor by microdilution method
Aspergillus niger [25] = experiment: Fungicidal activity Aspergillus niger
Aspergillus versicolor [26] = experiment: Fungicidal activity Aspergillus versicolor

Structure (SMILES) | MIC (Penicillium cyclopium [1]) [µM] | MIC (Erwinia amylovora [2]) [µM] | MIC [3] [µM] | MFC (Aspergillus ochraceus [4]) [µM] | MIC (Bacillus subtilis [5]) [µM] | MIC (Trichoderma viride [6]) [µM] | MIC (Pseudomonas fluorescens [7]) [µM] | MIC (Aspergillus fumigatus [8]) [µM] | MBC (Bacillus subtilis [9]) [µM] | MFC (Talaromyces funiculosus [10]) [µM] | MFC (Aspergillus fumigatus [11]) [µM] | MIC (Aspergillus niger [12]) [µM] | MBC [13] [µM] | MBC (Xanthomonas campestris [14]) [µM] | MIC (Aspergillus ochraceus [15]) [µM] | MBC (Pseudomonas fluorescens [16]) [µM] | MFC (Penicillium ochrochloron [17]) [µM] | MFC (Trichoderma viride [18]) [µM] | MIC (Xanthomonas campestris [19]) [µM] | MIC (Talaromyces funiculosus [20]) [µM] | other results
CC(C)(C)c1cc(/C=C(/C(=O)c2ccc(Cl)cc2Cl)n2cncn2)cc(C(C)(C)C)c1O | 160 (≈ 75.6 µg/mL) | 17 (≈ 8.03 µg/mL) | 4.5 (≈ 2.13 µg/mL) | 160 (≈ 75.6 µg/mL) | 17 (≈ 8.03 µg/mL) | 30 (≈ 14.2 µg/mL) | 9 (≈ 4.25 µg/mL) | 80 (≈ 37.8 µg/mL) | 17 (≈ 8.03 µg/mL) | 160 (≈ 75.6 µg/mL) | 160 (≈ 75.6 µg/mL) | 80 (≈ 37.8 µg/mL) | 9 (≈ 4.25 µg/mL) | 17 (≈ 8.03 µg/mL) | 60 (≈ 28.3 µg/mL) | 9 (≈ 4.25 µg/mL) | 160 (≈ 75.6 µg/mL) | 80 (≈ 37.8 µg/mL) | 17 (≈ 8.03 µg/mL) | 120 (≈ 56.7 µg/mL) | MFC (Penicillium cyclopium [21]): 320 µM (≈ 151 µg/mL); MIC (Penicillium ochrochloron [22]): 80 µM (≈ 37.8 µg/mL); MBC (Erwinia amylovora [23]): 17 µM (≈ 8.03 µg/mL); MIC (Aspergillus versicolor [24]): 80 µM (≈ 37.8 µg/mL); MFC (Aspergillus niger [25]): 160 µM (≈ 75.6 µg/mL); MFC (Aspergillus versicolor [26]): 160 µM (≈ 75.6 µg/mL)
CN(C)c1ccc(/C=C(/C(=O)c2ccc3ccccc3c2)n2cncn2)cc1 | 140 (≈ 51.6 µg/mL) | 2.7 (≈ 0.995 µg/mL) | 2.7 (≈ 0.995 µg/mL) | 140 (≈ 51.6 µg/mL) | 5.4 (≈ 1.99 µg/mL) | 70 (≈ 25.8 µg/mL) | 2.7 (≈ 0.995 µg/mL) | 140 (≈ 51.6 µg/mL) | 5.4 (≈ 1.99 µg/mL) | 270 (≈ 99.5 µg/mL) | 270 (≈ 99.5 µg/mL) | 140 (≈ 51.6 µg/mL) | 2.7 (≈ 0.995 µg/mL) | 5.4 (≈ 1.99 µg/mL) | 70 (≈ 25.8 µg/mL) | 2.7 (≈ 0.995 µg/mL) | 270 (≈ 99.5 µg/mL) | 140 (≈ 51.6 µg/mL) | 2.7 (≈ 0.995 µg/mL) | 190 (≈ 70 µg/mL) | MFC (Penicillium cyclopium [21]): 270 µM (≈ 99.5 µg/mL); MIC (Penicillium ochrochloron [22]): 140 µM (≈ 51.6 µg/mL); MBC (Erwinia amylovora [23]): 5.4 µM (≈ 1.99 µg/mL); MIC (Aspergillus versicolor [24]): 140 µM (≈ 51.6 µg/mL); MFC (Aspergillus niger [25]): 270 µM (≈ 99.5 µg/mL); MFC (Aspergillus versicolor [26]): 270 µM (≈ 99.5 µg/mL)
CC1(C)S[C@@H]2[C@H](NC(=O)[C@H](N)c3ccccc3)C(=O)N2[C@H]1C(=O)O [AMPICILLIN] |  | 0.25 (≈ 0.0874 µg/mL) | 0.1 (≈ 0.0349 µg/mL) |  | 0.2 (≈ 0.0699 µg/mL) |  | 8.6 (≈ 3 µg/mL) |  | 0.2 (≈ 0.0699 µg/mL) |  |  |  | 0.2 (≈ 0.0699 µg/mL) | 0.2 (≈ 0.0699 µg/mL) |  | 8.6 (≈ 3 µg/mL) |  |  | 0.2 (≈ 0.0699 µg/mL) |  | MBC (Erwinia amylovora [23]): 0.5 µM (≈ 0.175 µg/mL)
c1ccc(-c2ccc(C(c3ccccc3)n3ccnc3)cc2)cc1 (centres undefined) [BIFONAZOLE] | 320 (≈ 99.3 µg/mL) |  |  | 640 (≈ 199 µg/mL) |  | 480 (≈ 149 µg/mL) |  | 480 (≈ 149 µg/mL) |  | 810 (≈ 251 µg/mL) | 640 (≈ 199 µg/mL) | 480 (≈ 149 µg/mL) |  |  | 480 (≈ 149 µg/mL) |  | 810 (≈ 251 µg/mL) | 640 (≈ 199 µg/mL) |  | 640 (≈ 199 µg/mL) | MFC (Penicillium cyclopium [21]): 640 µM (≈ 199 µg/mL); MIC (Penicillium ochrochloron [22]): 640 µM (≈ 199 µg/mL); MIC (Aspergillus versicolor [24]): 320 µM (≈ 99.3 µg/mL); MFC (Aspergillus niger [25]): 640 µM (≈ 199 µg/mL); MFC (Aspergillus versicolor [26]): 640 µM (≈ 199 µg/mL)
O=C(N[C@H](CO)[C@H](O)c1ccc([N+](=O)[O-])cc1)C(Cl)Cl [CHLORAMPHENICOL] |  | 0.15 (≈ 0.0485 µg/mL) | 0.25 (≈ 0.0808 µg/mL) |  | 0.3 (≈ 0.0969 µg/mL) |  | 0.5 (≈ 0.162 µg/mL) |  | 0.3 (≈ 0.0969 µg/mL) |  |  |  | 0.5 (≈ 0.162 µg/mL) | 0.1 (≈ 0.0323 µg/mL) |  | 0.5 (≈ 0.162 µg/mL) |  |  | 0.1 (≈ 0.0323 µg/mL) |  | MBC (Erwinia amylovora [23]): 0.3 µM (≈ 0.0969 µg/mL)
CC(=O)N1CCN(c2ccc(OCC3COC(Cn4ccnc4)(c4ccc(Cl)cc4Cl)O3)cc2)CC1 (centres undefined) [KETOCONAZOLE] | 380 (≈ 202 µg/mL) |  |  | 380 (≈ 202 µg/mL) |  | 1880 (≈ 999 µg/mL) |  | 380 (≈ 202 µg/mL) |  | 940 (≈ 500 µg/mL) | 940 (≈ 500 µg/mL) | 380 (≈ 202 µg/mL) |  |  | 280 (≈ 149 µg/mL) |  | 2820 (≈ 1500 µg/mL) | 2820 (≈ 1500 µg/mL) |  | 380 (≈ 202 µg/mL) | MFC (Penicillium cyclopium [21]): 570 µM (≈ 303 µg/mL); MIC (Penicillium ochrochloron [22]): 1880 µM (≈ 999 µg/mL); MIC (Aspergillus versicolor [24]): 380 µM (≈ 202 µg/mL); MFC (Aspergillus niger [25]): 940 µM (≈ 500 µg/mL); MFC (Aspergillus versicolor [26]): 940 µM (≈ 500 µg/mL)
